According to publication PMC11571207, “Stereorandomized Oncocins with Preserved Ribosome Binding and Antibacterial Activity” (Journal of Medicinal Chemistry, 2024):
Where two headings read alike, the source gives them in different places. No end group written: not given here.

Tests used:
[1] = system: E. coli BW25113 sbmA::kan; conditions: Table S1, sbmA::kan mutant, 16-20 h at 37 °C; for MIC E. coli BW25113 SbmA-, 12.5% MH: 12.5% Müller-Hinton medium pH 7.4; for MIC E. coli BW25113 SbmA-, Full MH: full Müller-Hinton medium pH 7.4
Procedure: (§1) Minimum inhibitory concentration assay
(§2) Antimicrobial activity was assayed against P. aeruginosa PAO1, K. pneumoniae NCTC418, E. coli W3110, A. baumannii ATCC 19606, methicillin-resistant S. aureus COL (MRSA), and for selected peptides on P. aeruginosa PA14 and the polymyxin-B-resistant derivative PA14 2P4, as well as the clinical isolates ZEM-1A and ZEM9A, K. pneumoniae OXA-48, S. aureus Newman, Enterobacter cloacae and Burkholderia cenocepacia. The minimal inhibitory concentration (MIC) was determined by using broth microdilution method. A colo ny of bacteria was picked and grown in Luria-Bertani (LB) medium overnight at 37°C. For E. coli BW25113 sbmA::kan the medium was supplemented with 25 mg/L of kanamycin. The next day, the culture was then regrown in LB medium to log phase (OD600 = 0.6 to 0.8), which lasted approximately 4 h, and diluted to an OD600 of 0.022 in the desired medium. Stock solutions of 1 mg/mL of the samples were prepared in sterilized milliQ water and diluted to the beginning concentration of 64 μg/mL in 300 μL Mueller Hinton (MH)-medium. The diluted samples were added to first well of 96-well microtiter plate (TPP, untreated, Faust Laborbedarf, AG, Schaffhausen) and diluted serially by ½. Finally, 4 μL of the bacterial suspension was inoculated into the sample solutions (150 μL/well) with a final inoculation of about 5∙10^5 CFU/mL. The plates were then incubated at 37°C for 15-18h. For each assay, sterility (broth only) and growth control (broth with bacterial inoculum, without antibiotics) were checked with two columns in the plate. The next day, 15 μL of 3-(4,5-dimethylthiazol-2-yl)-2,5-diphenyltetrazolium bromide (MTT) was added to each well of the plate, such a way that MIC was defined as the lowest concentration of the peptide that inhibited visible growth of the tested […]
(§3) Table S1. Activity of stereorandomized and diastereomeric oncocins against E. coli BW25113 WT and BW25113 sbmA::kan mutant in full and 12.5% MH, at pH 7.4. […]
(§4) a) Minimum inhibitory concentration (MIC, μg/mL) was determined on E. coli BW25113 WT and […]

E. coli BW25113 WT = conditions: Table S1, 16-20 h at 37 °C; for MIC E. coli BW25113 WT, 12.5% MH: 12.5% Müller-Hinton medium pH 7.4; for MIC E. coli BW25113 WT, Full MH: full Müller-Hinton medium pH 7.4
Procedure: as §1, §2, §3, §4

E. coli W3110 = experiment: microbe, parasite or virus in culture; conditions: for MIC E. coli, 12.5% MHB / MIC E. coli, Full MHB: E. coli W3110, 16–20 h at 37 °C, broth microdilution; for MIC E. coli, 12.5% MHB: 12.5% Müller–Hinton medium; for MIC E. coli, Full MHB: full Müller–Hinton medium; for MIC E. coli W3110: supplement CSV
Procedure, shortened: (§5)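 Read-out was visible growth after MTT addition, the MIC being the lowest inhibitory peptide concentration. Bacteria grown to log phase in LB were exposed in MH medium to peptide from 64 μg/mL in twofold dilutions for 15-18h at 37°C.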

K. pneumoniae NCTC 418 = experiment: microbe, parasite or virus in culture; conditions: for MIC K. pneumoniae, 12.5% MHB / MIC K. pneumoniae, Full MHB: K. pneumoniae NCTC 418, 16–20 h at 37 °C; for MIC K. pneumoniae, 12.5% MHB: 12.5% Müller–Hinton medium; for MIC K. pneumoniae, Full MHB: full Müller–Hinton medium; for MIC K. pneumoniae NCTC418: supplement CSV
Procedure, shortened: as §5

P. aeruginosa PAO1 = experiment: microbe, parasite or virus in culture; conditions: for MIC P. aeruginosa, 12.5% MHB / MIC P. aeruginosa, Full MHB: P. aeruginosa PAO1, 16–20 h at 37 °C; for MIC P. aeruginosa, 12.5% MHB: 12.5% Müller–Hinton medium; for MIC P. aeruginosa, Full MHB: full Müller–Hinton medium; for MIC P. aeruginosa PAO1: supplement CSV
Procedure, shortened: as §5

A. baumannii ATCC19606 = experiment: microbe, parasite or virus in culture; conditions: for MIC A. baumannii, 12.5% MHB / MIC A. baumannii, Full MHB: A. baumannii ATCC19606, 16–20 h at 37 °C; for MIC A. baumannii, 12.5% MHB: 12.5% Müller–Hinton medium; for MIC A. baumannii, Full MHB: full Müller–Hinton medium; for MIC A. baumannii ATCC19606: supplement CSV
Procedure, shortened: as §5

S. aureus COL (MRSA) = experiment: microbe, parasite or virus in culture; conditions: for MIC S. aureus, 12.5% MHB / MIC S. aureus, Full MHB: S. aureus COL (MRSA), 16–20 h at 37 °C; for MIC S. aureus, 12.5% MHB: 12.5% Müller–Hinton medium; for MIC S. aureus, Full MHB: full Müller–Hinton medium; for MIC S. aureus COL (MRSA): supplement CSV
Procedure, shortened: as §5

[2] = system: P. aeruginosa PA14 4.18 (pmrB); conditions: for MIC P. aeruginosa PA14 4.18 (pmrB), 12.5% MHB / MIC P. aeruginosa PA14 4.18 (pmrB), full MHB: polymyxin B resistant strain, 16–20 h at 37 °C; for MIC P. aeruginosa PA14 4.18 (pmrB), 12.5% MHB: 12.5% MHB pH 7.4; for MIC P. aeruginosa PA14 4.18 (pmrB), full MHB: full MHB pH 7.4; for MIC P. aeruginosa PA14 4.18: supplement CSV
human red blood cells = experiment: Hemolysis assay, minimum hemolytic concentration; conditions: for Haemolysis on hRBC, MHC: 2.5% human red blood cells (final) in 10 mM phosphate, 150 mM NaCl, pH 7.4, 25 °C, 4 h, visual inspection; for MHC human red blood cells: supplement CSV

Substance	MIC E. coli BW25113 SbmA-, 12.5% MH [1]	MIC E. coli BW25113 WT, 12.5% MH (E. coli BW25113 WT)	MIC E. coli BW25113 WT, Full MH (E. coli BW25113 WT)	MIC E. coli, 12.5% MHB (E. coli W3110)	MIC E. coli, Full MHB (E. coli W3110)	MIC E. coli W3110 (E. coli W3110; 12.5% MH pH 7.4)	MIC E. coli W3110 (E. coli W3110; full MH pH 7.4)	MIC K. pneumoniae, 12.5% MHB (K. pneumoniae NCTC 418)	MIC K. pneumoniae, Full MHB (K. pneumoniae NCTC 418)	MIC K. pneumoniae NCTC418 (K. pneumoniae NCTC 418; 12.5% MH pH 7.4)	MIC K. pneumoniae NCTC418 (K. pneumoniae NCTC 418; full MH pH 7.4)	MIC P. aeruginosa, 12.5% MHB (P. aeruginosa PAO1)	MIC P. aeruginosa, Full MHB (P. aeruginosa PAO1)	MIC P. aeruginosa PAO1 (P. aeruginosa PAO1; 12.5% MH pH 7.4)	MIC P. aeruginosa PAO1 (P. aeruginosa PAO1; full MH pH 7.4)	MIC A. baumannii, 12.5% MHB (A. baumannii ATCC19606)	MIC A. baumannii, Full MHB (A. baumannii ATCC19606)	MIC A. baumannii ATCC19606 (A. baumannii ATCC19606; 12.5% MH pH 7.4)	MIC A. baumannii ATCC19606 (A. baumannii ATCC19606; full MH pH 7.4)	MIC S. aureus, 12.5% MHB (S. aureus COL (MRSA))	other results
VDKPPYLPRPRPPRRIYNR [sr9Cterm-Onc] (VDKPPYLPRPRPPRRIYNR-NH2; also: residues 11-19 stereorandomized (1:1 L/D mixture))	8 µg/mL	4 µg/mL	32 µg/mL	4 µg/mL	8 µg/mL	4 µg/mL	8 µg/mL	4 / 4 μg/mL	4 / 4 μg/mL	4 µg/mL	4 µg/mL	8 µg/mL	64 µg/mL	8 µg/mL	64 µg/mL	4 µg/mL	32 µg/mL	4 µg/mL	32 µg/mL	32 µg/mL	MIC E. coli BW25113 SbmA-, Full MH [1]: > 64 µg/mL; MIC S. aureus, Full MHB (S. aureus COL (MRSA)): > 64 µg/mL; MIC S. aureus COL (MRSA) (S. aureus COL (MRSA); 12.5% MH pH 7.4): 32 µg/mL; MIC S. aureus COL (MRSA) (S. aureus COL (MRSA); full MH pH 7.4): >64 µg/mL; MIC P. aeruginosa PA14 4.18 (pmrB), 12.5% MHB [2]: 8 µg/mL; MIC P. aeruginosa PA14 4.18 (pmrB), full MHB [2]: 64 µg/mL; MIC P. aeruginosa PA14 4.18 ([2]; 12.5% MH pH 7.4): 8 µg/mL; MIC P. aeruginosa PA14 4.18 ([2]; full MH pH 7.4): 64 µg/mL; Haemolysis on hRBC, MHC (human red blood cells): >1000 µg/mL; MHC human red blood cells (human red blood cells): >1000 µg/mL
VDKPPYLPRPRPPRRIYNR [sr14Nterm-Onc] (VDKPPYLPRPRPPRRIYNR-NH2; also: residues 1-14 stereorandomized (1:1 L/D mixture))	16 µg/mL	16 µg/mL	> 64 µg/mL	4 µg/mL	64 µg/mL	4 µg/mL	64 µg/mL	> 16 µg/mL	> 64 µg/mL	>16 µg/mL	>64 µg/mL	> 16 µg/mL	> 64 µg/mL	>16 µg/mL	>64 µg/mL	16 µg/mL	64 µg/mL	16 µg/mL	64 µg/mL	>64 / >64 μg/mL	MIC E. coli BW25113 SbmA-, Full MH [1]: > 64 µg/mL; MIC S. aureus, Full MHB (S. aureus COL (MRSA)): >64 / >64 μg/mL; MIC S. aureus COL (MRSA) (S. aureus COL (MRSA); 12.5% MH pH 7.4): >64 µg/mL; MIC S. aureus COL (MRSA) (S. aureus COL (MRSA); full MH pH 7.4): >64 µg/mL; MIC P. aeruginosa PA14 4.18 (pmrB), 12.5% MHB [2]: 32 µg/mL; MIC P. aeruginosa PA14 4.18 (pmrB), full MHB [2]: > 64 µg/mL; MIC P. aeruginosa PA14 4.18 ([2]; 12.5% MH pH 7.4): 32 µg/mL; MIC P. aeruginosa PA14 4.18 ([2]; full MH pH 7.4): >64 µg/mL; Haemolysis on hRBC, MHC (human red blood cells): >1000 µg/mL; MHC human red blood cells (human red blood cells): >1000 µg/mL
VDKPPYLPRPRPPRRIYNR [sr-Onc] (VDKPPYLPRPRPPRRIYNR-NH2; also: all 19 residues stereorandomized (1:1 L/D mixture))	8 to 16 µg/mL	8 µg/mL	> 64 µg/mL	8 µg/mL	32 µg/mL	8 µg/mL	32 µg/mL	> 16 µg/mL	> 64 µg/mL	>16 µg/mL	>64 µg/mL	8 µg/mL	> 64 µg/mL	8 µg/mL	>64 µg/mL	8 µg/mL	32 µg/mL	8 µg/mL	32 µg/mL	>64 / >64 μg/mL	MIC E. coli BW25113 SbmA-, Full MH [1]: > 64 µg/mL; MIC S. aureus, Full MHB (S. aureus COL (MRSA)): >64 / >64 μg/mL; MIC S. aureus COL (MRSA) (S. aureus COL (MRSA); 12.5% MH pH 7.4): >64 µg/mL; MIC S. aureus COL (MRSA) (S. aureus COL (MRSA); full MH pH 7.4): >64 µg/mL; MIC P. aeruginosa PA14 4.18 (pmrB), 12.5% MHB [2]: 32 µg/mL; MIC P. aeruginosa PA14 4.18 (pmrB), full MHB [2]: > 64 µg/mL; MIC P. aeruginosa PA14 4.18 ([2]; 12.5% MH pH 7.4): 32 µg/mL; MIC P. aeruginosa PA14 4.18 ([2]; full MH pH 7.4): >64 µg/mL; Haemolysis on hRBC, MHC (human red blood cells): >1000 µg/mL; MHC human red blood cells (human red blood cells): >1000 µg/mL
VDKPPYLPRPRPPRRIYNR-NH2 [L-Onc, reference compound]	8 µg/mL	4 µg/mL	16 to 32 µg/mL	2 µg/mL	4 µg/mL	2 µg/mL	4 µg/mL	4 / 4 μg/mL	4 / 4 μg/mL	4 µg/mL	4 µg/mL	16 µg/mL	> 64 µg/mL	16 µg/mL	>64 µg/mL	4 µg/mL	32 µg/mL	4 µg/mL	32 µg/mL	32 µg/mL	MIC S. aureus, Full MHB (S. aureus COL (MRSA)): > 64 µg/mL; MIC S. aureus COL (MRSA) (S. aureus COL (MRSA); 12.5% MH pH 7.4): 32 µg/mL; MIC S. aureus COL (MRSA) (S. aureus COL (MRSA); full MH pH 7.4): >64 µg/mL; MIC P. aeruginosa PA14 4.18 (pmrB), 12.5% MHB [2]: 32 µg/mL; MIC P. aeruginosa PA14 4.18 (pmrB), full MHB [2]: > 64 µg/mL; MIC P. aeruginosa PA14 4.18 ([2]; 12.5% MH pH 7.4): 32 µg/mL; MIC P. aeruginosa PA14 4.18 ([2]; full MH pH 7.4): >64 µg/mL; Haemolysis on hRBC, MHC (human red blood cells): >1000 µg/mL; MHC human red blood cells (human red blood cells): >1000 µg/mL
